According to PubChem BioAssay (NCI):
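Test compounds were applied to cells in 96-well plates for 48 hours at 5 doses. GI50: concentration for 50% inhibition of growth. TGI: concentration producing complete growth inhibition.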 *1 amine or outer side, *2 acyl side, *3 side chain or, on linkers, in order; H or OH if unused. Where a SMILES comes first, the peptide text is derived from it. [ ]: non-standard residue; d: D form. X32 = C[C@H](N[*:1])C(=O)C(C)(C)C(=O)[*:2]; Hmpa(2S,3S) = CC[C@H](C)[C@H](O)C(=O)O; NMeY = CN[C@@H](Cc1ccc(O)cc1)C(=O)O; NMeL = CN[C@@H](CC(C)C)C(=O)O; NMeV = CN[C@H](C(=O)O)C(C)C; βAla = NCCC(=O)O

How the values were obtained:
Assay in all cases: NCI anticancer screen, dose series, 48 h
CCRF-CEM leukemia = system: CCRF-CEM leukemia
OVCAR-8 ovarian = system: OVCAR-8 ovarian
NCI-H522 lung = system: NCI-H522 lung
NCI-H23 lung = system: NCI-H23 lung
SF-268 CNS = system: SF-268 CNS
SF-295 CNS = system: SF-295 CNS
BT-549 breast = system: BT-549 breast
HCC-2998 colon = system: HCC-2998 colon
UACC-257 melanoma = system: UACC-257 melanoma
UACC-62 melanoma = system: UACC-62 melanoma
SK-MEL-28 melanoma = system: SK-MEL-28 melanoma

SMILES | TGI (CCRF-CEM leukemia) [µM] | TGI (OVCAR-8 ovarian) [µM] | TGI (NCI-H522 lung) [µM] | TGI (NCI-H23 lung) [µM] | TGI (SF-268 CNS) [µM] | TGI (SF-295 CNS) [µM] | TGI (BT-549 breast) [µM] | TGI (HCC-2998 colon) [µM] | TGI (UACC-257 melanoma) [µM] | TGI (UACC-62 melanoma) [µM] | TGI (SK-MEL-28 melanoma) [µM] | GI50 (CCRF-CEM leukemia) [µM] | GI50 (OVCAR-8 ovarian) [µM] | GI50 (NCI-H23 lung) [µM] | GI50 (SF-268 CNS) [µM] | GI50 (SF-295 CNS) [µM] | GI50 (UACC-257 melanoma) [µM] | GI50 (UACC-62 melanoma) [µM] | GI50 (SK-MEL-28 melanoma) [µM] | GI50 (NCI-H522 lung) [µM]
CCC(C#N)NCc1cccc(CNC(C#N)CC)c1 (configuration not stated) | > 100 | > 100 | > 100 | > 100 | > 100 | 33.7 | > 100 | > 100 | > 100 | > 100 | > 100 |  |  |  |  |  |  |  |  | 
C(=C\c1ccco1)/c1cccc(/C=C/c2ccco2)n1 | > 50 | > 50 | > 50 | > 50 | > 50 | > 50 | > 50 | > 50 | > 50 | > 50 | > 50 |  |  |  |  |  |  |  |  | 
CCCCCCCCCCCCC(O)[C@H]1CC[C@H](C(O)CCCCCC(=O)CCCCC2CC(C(C)=O)C(=O)O2)O1 (some centres not stated) | > 45.6 | > 53.9 | 25.6 | 63.8 | 53.4 | 37.6 | 59.5 | 32.1 | 19.1 | 21.6 | 66.2 | 2.15 | 4.34 | 1.72 | 3.43 | 2.7 | 1.3 | 3.84 | 4.06 | 
O=C1C(c2c(O)[nH]c3ccc(Br)cc23)=Nc2ccccc21 | > 100 | 21.7 | 39.7 | 40.1 | 24.4 | 51 | 41 | 13.5 | 57.3 | 28 | > 100 |  |  |  |  |  |  |  |  | 
O=[N+]([O-])c1ccc(N/N=C/c2ccc(OCCCCCCCCCCCO)cc2)c([N+](=O)[O-])c1 | > 44.5 | 9.86 | 9.44 | 45.8 | 7.62 | 9.6 | 15.5 | 76.6 | 15.2 | 7.74 | 32.5 |  |  |  |  |  |  |  |  | 
CCCCn1c2c(n(CCCC)c1=S)-c1c(n(CCCC)c(=S)n1CCCC)SSc1c(n(CCCC)c(=S)n1CCCC)-c1c(n(CCCC)c(=S)n1CCCC)SSc1c(n(CCCC)c(=S)n1CCCC)-c1c(n(CCCC)c(=S)n1CCCC)SS2 | > 14.7 | > 13.6 | 1.86 | > 50 | > 30.2 | > 37 | > 50 | > 50 | > 50 | 20.3 | > 50 |  |  |  |  |  |  |  |  | 
COC(=O)C1(C)C=CC(=O)C2(C)C1C(O)C1OC3CC(c4ccoc4)C(C)=C3C1(C)C2CC(=O)O (configuration not stated) | > 100 | > 100 | > 100 | > 100 | > 100 | > 100 | > 100 | > 100 | > 100 | > 100 | > 100 |  |  |  |  |  |  |  |  | 
C/C(=N\NC(=S)NCCCNC(=S)N/N=C(\C)c1ccccn1)c1ccccn1 | 9.4 | 10.9 | > 49.4 | > 54.4 | 21 | 46.1 | 21.9 | > 59.1 | 29 | 14.2 | > 100 |  |  |  |  |  |  |  |  | 
CO/N=C(\C)c1cccc(Nc2c3ccccc3nc3occc23)c1 | > 100 | 66.4 | 7.64 | 20.9 | 31.8 | 18.4 | 48.8 | 20.4 | 25.6 | 22.5 | 16.5 |  |  |  |  |  |  |  |  | 
Cc1ccccc1S(=O)(=O)Nn1cnc2ccc(S(=O)(=O)Nc3ccc(Cl)cc3)cc2c1=O | > 100 | > 100 | > 100 | > 100 | > 100 | > 100 | > 100 | > 100 | > 100 | > 100 | > 100 |  |  |  |  |  |  |  |  | 
Cc1ccnc(NC(NC(=O)c2ccccc2)(C(F)(F)F)C(F)(F)F)c1 | > 100 | > 100 | > 100 | > 100 | > 100 | > 100 | > 100 | > 100 | > 100 | > 100 | > 100 |  |  |  |  |  |  |  |  | 
N#Cc1cnc(N)nc1NCC1(CO)CC(CCc2ccccc2)C1 (configuration not stated) | > 100 | > 100 | > 100 | > 100 | > 100 | > 100 | > 100 | > 100 | > 100 | > 100 | > 100 |  |  |  |  |  |  |  |  | 
Cc1cc(S(=O)(=O)Nc2nc3ccccc3c(=O)n2N)c(S)cc1Cl | > 100 | > 100 | 50.7 | > 100 | 40.1 | > 100 | > 100 | > 100 | > 100 | 49.2 | > 100 |  |  |  | 7.23 |  |  |  |  | 19
COC(=O)C(CCSC)NC(=O)Cc1ccc(C(=O)c2ccccc2)cc1 (configuration not stated) | > 100 | > 100 | > 100 | > 100 | > 100 | > 100 | > 100 | > 100 | > 100 | > 100 | > 100 |  |  |  |  |  |  |  |  | 
CCCCCCCCCCNC(=O)CCC(NC(=O)c1ccc(N(C)Cc2cnc3nc(N)nc(N)c3n2)cc1)C(=O)NCCCCCCCCCC (configuration not stated) | 5.9 | 25.5 | 16.6 | 54.4 | 40.2 | > 100 | 26.3 | 48.6 | > 60.1 | 49.5 | 23.6 |  |  |  |  |  |  |  |  | 
Nc1onc2c1Cc1c(noc1N)-c1ccccc1-2 | > 100 | > 100 | > 100 | > 100 | > 100 | > 100 | 50.4 | > 100 | > 100 | > 100 | > 100 |  |  |  |  |  |  |  |  | 
NC(N)=Nc1ccc(CC(N)C(=O)O)cc1 (configuration not stated) | > 12.5 | > 12.5 | > 12.5 | > 12.5 | > 12.5 | > 12.5 | > 12.5 | > 12.5 | > 12.5 | > 12.5 | > 12.5 |  |  |  |  |  |  |  |  | 
COc1ccc2c(c1)CCc1c-2n(CCN2CCCCC2)c2ccc(OC)cc12 | > 100 | > 100 | > 100 | > 100 | > 100 | > 100 | > 100 | > 100 | > 100 | > 100 | > 100 |  |  |  |  |  |  |  |  | 
CC[C@H](C)[C@@H]1OC(=O)CCNC(=O)[C@@H](C)NC(=O)C(C)(C)C(=O)[C@H](C)NC(=O)[C@H](Cc2ccc(OC)cc2)N(C)C(=O)[C@H](C(C)C)N(C)C(=O)CNC(=O)[C@H](CC(C)C)N(C)C(=O)CNC1=O (cyclo(G[NMeL]G[NMeV][NMeY](Me)[X32][dA][βAla][Hmpa(2S,3S)])) | 2.2 | 23.7 | > 50 | > 50 | 6.54 | 24.3 | 13.6 | > 25.1 | > 25.9 | > 50 | > 36.3 |  |  |  |  |  |  |  |  | 
CC(=O)Nc1ccc(C2SCc3nc4ccccc4n32)cc1 (configuration not stated) | > 100 | > 100 | > 100 | > 100 | > 100 | > 100 | > 74.6 | > 100 | > 100 | > 100 | > 100 |  |  |  |  |  |  |  |  | 
CC(=O)Nc1c(C)cc2c(nc3n2CCC3O)c1[N+](=O)[O-] (configuration not stated) | > 100 | > 100 | > 100 | > 100 | > 100 | > 100 | > 100 | > 100 | > 100 | > 100 | > 100 |  |  |  |  |  |  |  |  | 
CCOC(=O)C(SCCO)C(C(=O)OCC)n1ccc(=O)[nH]c1=O (configuration not stated) | 10.5 | > 57.4 | 22.7 | > 100 | > 100 | > 100 | > 100 | > 100 | > 100 | 67.3 | > 86.7 |  |  |  |  |  |  |  |  | 
